Measurements taken from BindingDB's records for patent US12247013 (Antabio, 2025).

Biological target: Elastase (Pseudomonas aeruginosa (strain ATCC 15692 / DSM 22644 / CIP 104116 / JCM 14847 / LMG 12228 / 1C / PRS 101 / PAO1), UniProt P14756)
Assay: Fluorometric Assay
Experimental: Method: 10 to 140 ng/ml purified LasB is incubated with 250 μM Abz-Ala-Gly-Leu-Ala-p-Nitro-Benzyl-Amide in 50 mM Tris-HCl pH 7.4, 2.5 mM CaCl2), 0.01% of Triton X100 at 37° C. LasB activity (corresponding to fluorescence emission induced by substrate hydrolysis) is measured over 30 min at 37° C. with a fluorescence plate reader such as the Perkin Elmer Envision or similar. Different range of inhibitor concentrations are routinely assessed depending of inhibitor potency from 0.0016 to 200 μM (2-fold dilutions series) in order to determine IC50.

Chain of Elastase (P14756 whole entry): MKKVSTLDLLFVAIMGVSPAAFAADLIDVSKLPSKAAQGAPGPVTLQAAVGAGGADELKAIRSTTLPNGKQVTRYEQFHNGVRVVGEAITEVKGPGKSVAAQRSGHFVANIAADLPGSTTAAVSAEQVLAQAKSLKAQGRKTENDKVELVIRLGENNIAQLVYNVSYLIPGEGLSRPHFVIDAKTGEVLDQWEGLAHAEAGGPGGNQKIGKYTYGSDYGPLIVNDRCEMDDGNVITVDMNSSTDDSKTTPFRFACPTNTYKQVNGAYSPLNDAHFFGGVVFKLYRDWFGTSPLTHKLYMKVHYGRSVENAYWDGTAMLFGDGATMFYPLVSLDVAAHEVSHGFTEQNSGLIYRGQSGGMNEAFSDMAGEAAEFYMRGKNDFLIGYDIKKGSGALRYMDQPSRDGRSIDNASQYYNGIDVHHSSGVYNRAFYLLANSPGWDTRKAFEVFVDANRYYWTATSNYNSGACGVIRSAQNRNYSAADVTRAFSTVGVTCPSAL

In the case of `COc1cc2sc(CNC(=O)C3(CC(=O)O)Cc4cc(F)c(F)cc4C3)nc2cc1C(=O)N1CCN(C)CC1` [US12247013, Example 34], the Ki is reported as less than 50 nM.
